Measured values published in patent publication US11518981B2, “Methods of enhancing engraftment activity of hematopoietic stem cells” (CHILDREN'S HOSPITAL MEDICAL CENTER, priority 2017, dated 2022).

Experiments:
[1] = system: CD34^+38^−90^+ cells; assay: Annexin V apoptosis assay in HSCs; format: cell-based, human; conditions: annexin V^+ CD34^+38^−90^+ cells
Description: (§1) PE-Cyanine 7 or APC-EFLUOR® 780, APC- or PE-conjugated antibodies directed to human CD34 (BD Biosciences 560710 or 555824), CD38 (eBiosciences, San Diego, Calif. 47-0389-42), CD90 (BioLegend 328120), CD45RA (eBiosciences 17-0458-42), CD49f (BD Biosciences 555736), CD45 (BD 55485 or Biolegend 304026), CD33 (eBiosciences 25-0338-42), CD19 (BD Biosciences 557791), or CD3 (BD Biosciences 555340). Cells (˜5×10^5−1×10^6) were used to label with antibodies as per manufacturer instructions with the appropriate isotype controls. For phospho-flow, primary antibodies phospho-p38 (Thr180/Tyr182; 4092S), phospho-p44/42 MAPK (ERK ½) (Thr202/Tyr204; 4094S), and phospho-JNK (Thr183-Tyr185 PE conjugate; 5755S) (all from Cell Signaling) were used for staining overnight followed by wash and secondary antibody stain including Goat anti-Rabbit IgG (H+L) or Goat anti-Rabbit IgG (H+L) or Pacific Blue (P-10994) antibody. Apoptosis assay was performed using PE Annexin V Apoptosis Detection Kit (BD Biosciences 559763) according to the manufacturer's instructions. Total ROS and mitochondrial specific ROS were detected using 10 μM CM-H2DCFDA (ThermoFisher Scientific C6827) and 5 μM MITOSOX™ Red (Red Mitochondrial Superoxide Indicator) (ThermoFisher Scientific M36008) respectively, following manufacturer's instructions.

[2] = system: CD34^+38^−90^+ HSCs; assay: cell cycle analysis (Ki-67 / Hoechst) of HSCs; format: cell-based, human
[3] = system: human MPB derived CD34^+ cells; assay: human CD45^+ engraftment in bone marrow of NSG mice after primary transplant (1 T); format: in vivo; conditions: 24 weeks post 1 T; 72-96 h LV and RV groups
Description: Freshly isolated CD34^+ cells were used, wherever possible, and especially for 0 h controls. In some experiments cryopreserved CD34^+ cells were thawed for 4 hrs in IMDM containing cytokines, then washed and used for experiments. […] Cells were kept in culture for a total of either 18-24 hours, 36-42 hours or 72-96 hours. For RV transduction, human CD34^+ cells were pre-stimulated for 2 days (42-48 hours) hours at a cell density of 3×10^5 cells/ml. Retronectin coated tissue culture flasks or plates were preloaded at room temperature with GALV pseudotyped RV twice for one hour each. The vector supernatant was removed and the cells were loaded into the RV loaded retronectin coated flasks. RV transduction was also performed twice 24 hours apart at an MOI ranging from 5 to 10. After total of 72-96 hours in culture, cells were harvested. LV and RV transductions were performed at 37° C. under 5% CO2 in ambient oxygen concentrations (20% 02). For some experiments, LV was added just like RV after 2 days of pre-stimulation. p38 MAPK inhibitors Birb 796 (600 nM), Vx-745 (1 μM), or LY 2228820 (500 nM) (all from Selleckchem) were supplemented to the culture media. […] Human engraftment was analyzed in bone marrow (BM), via BM aspirates performed at 6 and 12 weeks from left and right femurs. […]

[4] = system: human MPB derived CD34^+ cells; assay: long term repopulating potential (LTRP) in secondary transplanted (2 T) NSG mice; format: in vivo; conditions: CD34^+ cells cultured 36-42 h and 72-96 h; 6 weeks post 2 T
Description: NOD.Cg-Prkdcscid Il2rgtm1Wjl/SzJ (NSG) mice were purchased from The Jackson Laboratory (Bar Harbor, Me.). All animals were bred and maintained in a specific pathogen-free environment and all experiments were approved by the Institutional Animal Care and Use (IACUC) Committee. Male and female NSG mice aged 8 to 14 weeks old were fed doxycycline chow (TestDiet; Modified Prolab RMH-1500 with 0.0625% doxycycline) a week prior to, during and for 2 weeks post irradiation. Human engraftment was analyzed in bone marrow (BM), via BM aspirates performed at 6 and 12 weeks from left and right femurs. After sacrifice at 24 weeks, marrow from all of the primary mice (1 T) was harvested. Peripheral blood analysis was also performed in some experiments. Secondary transplants (2 T) were performed after mouse CD45^+ cells were depleted from BM harvested from each 1 T mouse separately, using Biotin Rat Anti-Mouse CD45 (BD Biosciences 553078) and Streptavidin Particles Plus-DM (BD Biosciences 557812) and injected into one irradiated (280 cGy) secondary NSG mouse. For calculating competitive repopulating units (CRU) from limiting dilution transplantation, the L-CALC^TM software (Stem Cell Technologies) was used. All of the mice used for this study were randomly assigned to a treatment group. No animals were excluded from the analysis.

[5] = system: CD34^+38^−90^+45RA^−49f^+ HSCs; assay: phenotypic HSC population by flow cytometry; format: cell-based, human
Description: as §1

[6] = before the first HSC division in vitro (24 h)

Compound: Cc1ccc(-n2nc(C(C)(C)C)cc2NC(=O)Nc2ccc(OCCN3CCOCC3)c3ccccc23)cc1 [p38i, 1-[5-tert-butyl-2-(4-methylphenyl)pyrazol-3-yl]-3-[4-(2-morpholin-4-ylethoxy)naphthalen-1-yl]urea]
- apoptosis in the HSC compartment [1]: no difference
- percentage of cells in the different phases of cell cycle ([2]; HSCs transduced when actively cycling (RV)): no difference
- effect on increasing the G0 population ([2]; after HSCs progressed through cell cycle): lost
- proportion of HSCs in the G0 quiescent phase [2, 6]: significantly increased
- proportion of HSCs in the S-G2M phase [2, 6]: decreased
- human CD45^+ cell engraftment in the NSG BM [3]: improved
- LTRP in 2 T mice [4]: restored the LTRP in 2 T mice to levels seen with unmanipulated HSPCs
- increased phenotypic HSC population ([5]; other than prolonged cultures): similar
- phenotypic HSCs ([5]; prolonged cultures): higher
